Reference: patent publication US20110251230A1, “THERAPEUTICS FOR NEUROLOGICAL DISORDERS” (UNIVERSITY OF SHEFFIELD, priority 2008, published 2011)
Read-outs that look alike come from different tables or passages of the source.

Legend:
[1] = test system: HO-1 and NQO-1 transcripts; assay: In vivo pharmacodynamics, QRT-PCR for HO-1 and NQO-1 in mice; conditions: mouse
[2] = mouse, in vivo, iv
[3] = test system: motor neurones (MN) in primary mouse astrocyte/MN co-cultures; assay: Menadione stress in primary mouse astrocyte/motor neurone co-cultures; assay type: cell-based
Experimental: Mouse glial cultures were established from C57BI/6 cortices from 1-2 day old pups. Cortices were dissected out and cells dissociated by trituration following incubation in DNasel, collagenase and trypsin. The incubation and trituration steps were repeated to ensure complete dissociation of cells. Cells were plated at 45,000 cells/cm^2 in DMEM containing 10% FBS, 100 U/ml penicillin, and 100 μg/ml streptomycin. After 24 hours, cultures were washed in PBS and grown for 2-3 weeks until confluent, changing the medium once a week. Confluent glial cultures were enriched for astrocytes by shaking and mild trypsinisation. Enriched astrocytes were grown to confluency and plated onto coverslips coated with poly-D-ornithine (1.5 mg/ml; Sigma, Poole, UK) at 40,000 cells/cm^2, and grown for 1 week. […]
When co-cultures were established for 2 weeks, neuroprotection assays were performed by 24 hrs exposure to drug or vehicle followed by a 6 hour 10 micromolar menadione oxidative stress or glutamate. […] Total MNs were counted by fluorescent microscopy in a 1.5 cm^2 area per coverslip. […] Both vehicle and drug treatments were counted before and after stress treatment, and results were statistically analysed by 2 way anova using Bonferroni post tests.
The co-cultures were then challenged for 6 hours with 10 μM menadione to induce oxidative stress and motor neurones stained and counted. […]

[4] = test system: Haem oxygenase 1 and NQO1 gene expression in C6 cells; assay: Multiplex/quantitative RT-PCR for NRF2 regulated genes in C6 cells; assay type: cell-based, rat
Experimental: (§1) Quantitative RT-PCR. (Q-PCR) was performed using 25 ng of cDNA, 1× SYBR Green PCR Master Mix (Stratagene) and optimised concentrations of forward and reverse primers (Table 1), in a total volume of 20 μl and in triplicate for each sample. Following denaturation at 95° C. for 10 min, products were amplified by 40 cycles of 95° C. for 15 s and 60° C. for 1 min, on an MX3000P Real Time PCR System (Stratagene). To ensure amplification of a single product the dissociation curve was produced for each amplification. The relative levels of the genes of interest in the samples was determined by normalizing the level of expression to that of gapdh in each of the samples and by using the ddCt calculation (SYBR Green PCR mix and RT-PCR protocol, Applied Biosystems). Overall relative concentrations of the genes of interest were calculated following drug treatment by normalising the data to the cells grown in the vehicle (DMSO).

[5] = test system: NRF2-ARE pathway in C6 cells; assay: ARE reporter assay in C6 astrocyte cell line; assay type: cell-based, rat
Excerpt: NRF2-ARE Inducing activity of the best hit compounds in neuronal and astrocytic cell lines was investigated. In order to determine whether the differences in protection in astrocytic and motor neuronal cell lines was due to differences in the degree of activation of the NRF2-ARE pathway in these cell types, the NRF2-ARE reporter construct was stably expressed in both the astrocytic (C6) and motor neuronal (NSC34) cell lines. The 17 best hit molecules were then screened in each cell line. We also screened the S [+] enantiomer of apomorphine as it can exist as either an R[−] or S[+] enantiomer. The […] enantiomer has dopamine agonist activity whereas the S[+] enantiomer has lost this activity and so we wanted to determine whether it retains NRF2-ARE inducing activity. In general activation of the NRF2-ARE pathway in the C6 cells was similar to that seen in the CHO cell line. […].

[6] = test system: NQO1 and HO1 transcripts in primary mouse astrocytes from G93A mutant SOD1 transgenic mice; assay: Quantitative RT-PCR of NQO1 and HOX1 in G93A mutant SOD1 primary mouse astrocytes; assay type: cell-based
Experimental: as §1

C6 (rat) astrocytic line = assay: C6 oxidative stress assay (serum withdrawal, DCF)
Experimental: (§2) A simple oxidative stress assay was used to determine whether preconditioning with NRF2-ARE inducing drugs could protect against a subsequent oxidative stress insult (serum withdrawal). The NSC34, C6 and 1321N1 cells were plated in 96 well tissue culture plates to achieve 30% confluency. […] Media was then replaced with serum free, phenol free media for 5 hrs. […] Cell survival assay was then performed on the cells as protection is measured as % reduction in DCF signal, therefore data points were excluded where a decrease in cell number was measured.
(§3) Briefly methylthiazolyldiphenyl-tetrazolium bromide (MTT) was added to the cells and a blank well to a final concentration 0.5 mg/ml and incubated at 37° C. for 1-3 hrs depending on the cell line used.

[7] = test system: NSC34 mouse motor neuronal cells; assay: NSC34 oxidative stress assay (serum withdrawal, DCF); conditions: NSC34
Experimental: as §2, §3

[8] = test system: 1321N1 (human) astrocytic line; assay: 1321N1 oxidative stress assay (serum withdrawal, DCF)
Experimental: as §2, §3

[9] = test system: NRF2-ARE pathway in the CHO 4× ARE-TK cell line; assay: ARE reporter assay in CHO 4×ARE-TK-GFP cell line (GFP induction, EthD1 toxicity)
Experimental: Chinese Hamster Ovary (CHO), NSC34 mouse motor neuronal cells, C6 (rat) and 1321N1 (human) astrocytic lines were routinely maintained in DMEM supplemented with 10% FBS and penicillin/streptomycin. […] These plasmids were transfected into CHO, C6 and 1321N1 cell lines using Lipofectamine 2000 (Invitrogen) and following 10-14 days of selection in 0.5 mg/ml G418 they were expanded and selected for basal eGFP expression using fluorescence activated cell sorting (BD, FACSAria) with two sequential cell sorts for each cell line. These mixed populations of stable transfectants with basal eGFP expression were used in subsequent assays and designated 4×ARE-TK-GFP for the ARE containing line and TK-GFP for the control cell line. […]
Confluent cultures of 4×ARE-TK-GFP CHO or TK-GFP CHO expressing cells in 96 or 384-well tissue-culture plates were treated with drug (0.01-100 µM in triplicate) or vehicle (0.1-1% DMSO) in FCS-free DMEM in triplicate for 24 hours. The media was removed and replaced with the same volume of PBS containing 0.3 μM EthD1. […] Non-linear regression was used to fit a sigmoidal dose-response curve on a semi-Log plot to calculate the EC50 using GraphPad Prism (GraphPad Software). The reporter assay was conducted in a similar fashion in C6 and 1321N1 astrocyte cell lines stably transfected with the 4×ARE-TK-GFP and TK-GFP constructs except that Eth D1 was added directly in the media and read prior to washing the cells once and reading the […] signal. […]
The compounds were applied in triplicate to confluent cells in 96 well plates in serum free medium for 24 hours and the induction of GFP measured in a fluorescence plate reader. […]

[10] = test system: motor neuronal cell line expressing mutant (G93A) human SOD1; conditions: prior art; cited from earlier work
G93A mouse model of ALS = conditions: higher doses, once a day, orally from 60 days of age; prior art; cited from earlier work

CN1CCc2cccc3c2[C@H]1Cc1ccc(O)c(O)c1-3.Cl (single isomer, unassigned) [S[+] apomorphine, S [+] apomorphine]
induction of HO-1 and NQO-1 transcripts [1]: significant induction | levels of the compound in plasma, brain and cerebral spinal fluid [2]: detected | reduction in motor neurone number after menadione [3]: not seen | Haem oxygenase 1 and NQO1 gene expression [4]: statistically significant changes in gene expression | NRF2-ARE activation in C6 reporter cell line [5]: equally potent | transcripts for NQO1 and HO1 [6]: significant increase

C=C1CC[C@@H]2[C@](C)(CO)[C@H](O)CC[C@@]2(C)[C@@H]1C/C=C1/C(=O)OC[C@H]1O [Andrographolide]
Lowest dose with toxicity (C6 (rat) astrocytic line; C6): 10 µM | IC50 (C6 (rat) astrocytic line; C6, 24 h pre-treatment, serum withdrawal, DCF): 192 nM | reduction in motor neurone number after menadione ([3]; 24 h pre-treatment, 6 hours 10 μM menadione, DMSO control approximately 25% reduction): not seen | Lowest dose with toxicity [7]: 10 µM | Haem oxygenase 1 and NQO1 gene expression ([4]; C6 cells, 24 h, EC50 and EC90 concentrations): statistically significant changes in gene expression | Lowest dose with toxicity ([8]; 1321N1): 10 µM | IC50 ([8]; 1321N1, 24 h pre-treatment, serum withdrawal, DCF): 501 nM | Lowest dose with toxicity ([9]; Chinese hamster, 24 h): 100 µM | EC50 ([9]; Cricetulus griseus, 24 h, read-out: Average EC50, CHO 4×ARE-TK-GFP, GFP induction, 24 h): 740 nM | maximal fold induction ([9]; Cricetulus griseus, 24 h, read-out: Average fold GFP induction at maximal response): 3.61 | EC50 ([9]; Cricetulus griseus, CHO ARE reporter): 740 nM | transcripts for NQO1 and HO1 ([6]; G93A mutant SOD1 astrocytes, 24 hour pre-treatment, EC90 concentrations): significant increase

O=C(O[C@@H]1Cc2c(O)cc(O)cc2O[C@@H]1c1cc(O)c(O)c(O)c1)c1cc(O)c(O)c(O)c1 [EGCG, catechin-(−) epigallocatechin-3-gallate, reference compound]
concentration giving partial protection from H2O2 induced cell death [10]: greater than 20 μM | survival (G93A mouse model of ALS): significant extension in survival | fluorescence in the control TK-GFP cell line ([9]; control TK-GFP CHO cell line): No increase in fluorescence | concentration of peak ARE activation (GFP expression) ([9]; narrow window, 24 h, serum free medium): 100 µM
